Test results as given in patent US4874882A, “Process for preparing monosodium phosphoenolpyruvate” (Ube Industries, Ltd., priority 1986, dated 1989).

Legend:
[1] = system: ischemic kidney of rabbit; assay: Effect on ischemic kidney of rabbit (BUN and creatinine value in blood, recovery of renal function); format: in vivo, male Japanese white-strain rabbits
From the text: The animals used in this experiment were 10 male Japanese white-strain rabbits, and were grouped into a group of 5 rabbits to which the injection of monosodium phosphoenolpyruvate (hereinafter simply called "PEP·Na") prepared in Example 4 should be administered and a group of 5 rabbits to which a physiological saline should be administered,to carry out experiments as follows:
To each of the rabbits used in this experiment, a 1% aqueous solution of pentobarbital sodium was intravenously injected in an amount of 3 ml/kg (b.w.) to apply general anesthesia, and a median incision of its venter was carried out to extirpate the right kidney. Subsequently, the left kidney was exposed to infiltrate xylocaine into the surrounding portion of the renal pelvis, and the left renal artery was blocked while handling the kidney with tender care. More specifically, the blood flow of the renal artery was blocked for 60 minutes, and then released for 10 minutes, followed by blocking for more 60 minutes, to perform ischemia for 120 minutes in total. Thereafter, blocking was released for reperfusion. During these procedures, to the rabbits belonging to the PEP·Na group, PEP·Na was intravenously administered in the form of an injection prepared in Example, with a dose of 10 mg/kg (b.w.) every time immediately before release of the first and the second blocking, and, also after release of the blocking, PEP·Na was similarly administered with a dose of 10 mg/kg (b.w.) once a day. On the other hand, to the rabbits belonging to the control group, a physiological saline was intravenously administered in an amount of 1 ml/kg (b.w.) every time immediately before release of the first and the second blocking, and, also after release of the blocking, the physiological saline was similarly administered in an amount of 1 ml/kg (b.w.) once a day, every day.
Next, blood urea nitrogen (hereinafter "BUN") and creatinine value which are standards to know the morbidity of a kidney were assayed with time to make an index showing the recovery rate of renal function. Results obtained are shown in Table 1 and Table 2 and also in FIG. 1 and FIG. 2.

[2] = system: ischemic kidney of beagle; assay: Effect on ischemic kidney of beagle (BUN and creatinine value, recovery of renal function); format: in vivo, male beagles
Method: The animals used in this experiment were 6 male beagles, and were grouped into a group of 3 beagles to which the injection of PEP·Na prepared in Example should be administered and a group of 3 beagles to which a physiological saline should be administered, to carry out experiments as follows in the same manner as in Test Example 1.
To each of the beagles, a 5% aqueous solution of pentobarbital sodium was intravenously injected in an amount of 0.5 ml/kg (b.w.) to apply general anesthesia, and a median incision of its venter was carried out to extirpate the right kidney. Subsequently, the left kidney was exposed to infiltrate xylocaine into the surrounding portion of the renal pelvis, and the blood flow of the left renal artery was blocked for 90 minutes while handling the kidney with tender care. Thereafter, blocking was released for reperfusion. To the beagles belonging to the PEP·Na administered group, PEP·Na was intravenously administered in the form of an injection prepared in Example, with a dose of 100 mg/kg (b.w.) every time immediately after release of blocking, and, also, thereafter, PEP·Na was similarly administered with a dose of 100 mg/kg (b.w.) once a day every day. On the other hand, to the beagles belonging to the control group, physiological saline was intravenously administered in an amount of 10 ml/kg (b.w.) every time immediately after release of blocking, and, also thereafter, physiological saline was similarly administered in an amount of 10 ml/kg (b.w.) once a day.
Next, BUN and creatinine value were assayed with time to make an index showing the recovery rate of renal function. Results obtained are shown in Table 3 and Table 4 and also in FIG. 3 and FIG. 4.

[3] = Acute toxicity (LD50) to beagle; format: in vivo; conditions: dog, in vivo, beagle
Method: (§1) Acute toxicity (LD50) in the case where monosodium phosphoenolpyruvate monohydrate was administered to a beagle was examined.

beagle = assay: Acute toxicity (LD50) to beagle; format: in vivo; conditions: conclusion from LD50 in beagle
Method: as §1

[4] = after 1 day, 10 mg/kg i.v. before each release of blocking, then once a day
[5] = after 2 days, 10 mg/kg i.v. before each release of blocking, then once a day
[6] = after 3 days, 10 mg/kg i.v. before each release of blocking, then once a day
[7] = after 4 days, 10 mg/kg i.v. before each release of blocking, then once a day
[8] = after 5 days, 10 mg/kg i.v. before each release of blocking, then once a day
[9] = immediately before blocking (baseline)
[10] = rabbits, 1 day (24 hours) after release of blocking
[11] = rabbits, after day 1, over a period of 4 days, vs control group
[12] = after 1 day, 100 mg/kg i.v. immediately after release of blocking, then once a day
[13] = after 2 days, 100 mg/kg i.v. immediately after release of blocking, then once a day
[14] = after 3 days, 100 mg/kg i.v. immediately after release of blocking, then once a day
[15] = after 4 days, 100 mg/kg i.v. immediately after release of blocking, then once a day

For C=C(OP(=O)(O)O)C(=O)O [PEP.Na, monosodium phosphoenolpyruvate monohydrate], the “BUN of rabbits in PEP.Na-administered group” value (“BUN of rabbits” below) [1, 4] was 54.2 ± 2.2 mg/dL, the “Creatinine value of rabbits in PEP.Na-administered group” value (from here on “Creatinine value of rabbits”) [1, 4] was 2.83 ± 0.74 mg/dL and the “BUN of rabbits” value [1, 5] was 58.0 ± 15.2 mg/dL. The “Creatinine value of rabbits” value [1, 5] was 2.61 ± 0.87 mg/dL, the “BUN of rabbits” value [1, 6] was 44.1 ± 10.5 mg/dL and the “Creatinine value of rabbits” value [1, 6] was 2.06 ± 0.72 mg/dL. For the same molecule, the “BUN of rabbits” value [1, 7] was 35.5 ± 11.0 mg/dL, the “Creatinine value of rabbits” value [1, 7] was 1.73 ± 0.40 mg/dL and the “BUN of rabbits” value [1, 8] was 15.0 ± 5.8 mg/dL. The “Creatinine value of rabbits” value [1, 8] was 1.19 ± 0.17 mg/dL, the “Creatinine value of rabbits” value [1, 9] was 1.18 ± 0.06 mg/dL and the “BUN of rabbits” value ([1]; immediately before blocking (baseline), mean ± spread) was 14.5 ± 1.3 mg/dL. The “recovery of renal function” value ([1]; rabbit) was “apparently effective for the recovery of renal function”, the “BUN compared with control group” value [1, 10] was “significantly lower value of BUN” and the “creatinine compared with control group” value [1, 10] was “significantly lower value of creatinine”. The “time course of BUN” value [1, 11] was “gradually decreases thereafter over a period of 4 days and gets back to the value given before blocking earlier than in control group”, the “time course of creatinine” value [1, 11] was “gradually decreases thereafter over a period of 4 days and gets back to the value before blocking earlier than in control group” and the “BUN of beagles in PEP.Na-administered group” value (“BUN of beagles” below) [2, 12] was 46 ± 8.3 mg/dL. For the same molecule, the “Creatinine value of beagles in PEP.Na-administered group” value (“Creatinine value of beagles” below) [2, 12] was 3.0 ± 0.45 mg/dL, the “BUN of beagles” value [2, 13] was 63 ± 10.1 mg/dL and the “Creatinine value of beagles” value [2, 13] was 2.9 ± 0.41 mg/dL. The “BUN of beagles” value [2, 14] was 52 ± 9.6 mg/dL, the “Creatinine value of beagles” value [2, 14] was 2.5 ± 0.33 mg/dL and the “BUN of beagles” value [2, 15] was 44 ± 9.2 mg/dL. For the same molecule, the “Creatinine value of beagles” value [2, 15] was 2.0 ± 0.31 mg/dL, the “recovery of renal function” value ([2]; beagle) was “apparently effective for the recovery of renal function” and the “BUN compared with control group” value ([2]; beagles, 1 day (24 hours) after release of blocking) was “significantly lower value of BUN”. The “creatinine value compared with control group” value ([2]; beagles, 1 day after release of blocking) was “significantly lower value of creatinine value”, the “time course of creatinine value” ([2]; beagles, after day 1, over a period of 3 days) was “gradually decreases thereafter over a period of 3 days” and the “time course of BUN” value ([2]; beagles, after release of blocking) was “reaches to a maximum after 2 days, but thereafter gradually decreases”. The “BUN of beagles” value [2, 9] was 15 ± 0.5 mg/dL, the “Creatinine value of beagles” value [2, 9] was 0.8 ± 0.23 mg/dL and the LD50 ([3]; intravenous) was ≥ 1000 mg/kg. For the same molecule, the LD50 ([3]; oral) was ≥ 3000 mg/kg and the “safety to a living body” value (beagle) was “very safe substance”.
